Laboratory results taken from a compilation of properties of binary mixtures (doi:10.1021/je200600p).

Test: xn = mol fraction of the nth substance listed
Conditions: 101 kPa

CCCC[n+]1ccn(C)c1.COP(=O)([O-])OC + O
viscosity [mPa·s]
Conditions | 293.15 K | 298.15 K | 303.15 K | 308.15 K | 313.15 K | 318.15 K | 323.15 K | 328.15 K | 333.15 K
x2 = 0.201 | 594 | 410 | – | 212 | 157.5 | 119.7 | 92.7 | 73.1 | 58.55
x2 = 0.398 | 356 | – | 181.6 | 134.7 | 102 | – | 62.07 | – | 40.4
x2 = 0.601 | 148.3 | 108.5 | – | 62.54 | 48.93 | 39.05 | 31.67 | 26.05 | 21.69
x2 = 0.799 | 39.94 | 30.68 | 24.17 | 19.42 | – | 13.14 | 11.05 | 9.37 | 8.037

CC[n+]1ccn(C)c1.COP(=O)([O-])OC + CCO
viscosity [mPa·s]
Conditions | 293.15 K | 298.15 K | 303.15 K | 308.15 K | 313.15 K | 318.15 K | 323.15 K | 328.15 K | 333.15 K
x2 = 0.199 | 190.6 | 142.7 | 109.5 | 85.8 | 68.4 | 55.53 | 45.75 | – | 32.27
x2 = 0.398 | 87.3 | – | – | 45 | 37.37 | – | 26.44 | 22.64 | 19.56
x2 = 0.598 | 27.63 | – | 19.83 | 17.05 | 14.8 | – | 11.36 | 10.04 | 8.951
x2 = 0.798 | 6.898 | 6.127 | 5.471 | – | 4.425 | 4.004 | 3.634 | 3.318 | 3.037

CC[n+]1ccn(C)c1.COP(=O)([O-])OC + O
viscosity [mPa·s]
Conditions | 293.15 K | 298.15 K | 303.15 K | 308.15 K | 313.15 K | 318.15 K | 323.15 K | 328.15 K | 333.15 K
x2 = 0.198 | – | – | – | 119.7 | 93 | – | 59.37 | 48.61 | –
x2 = 0.399 | 194.9 | 143.4 | 108.1 | 83.5 | 65.74 | – | 42.99 | – | 29.81
x2 = 0.6 | 98.6 | 74.5 | 57.7 | 45.45 | 36.43 | 29.68 | 24.55 | 20.58 | 17.46
x2 = 0.799 | 32.35 | 25.47 | 20.44 | 16.68 | 13.81 | – | 9.81 | 8.405 | 7.264

CC[n+]1ccn(C)c1.COP(=O)([O-])OC + CO
viscosity [mPa·s]
Conditions | 293.15 K | 298.15 K | 303.15 K | 308.15 K | 313.15 K | 318.15 K | 323.15 K | 328.15 K | 333.15 K
x2 = 0.198 | 197.6 | 147.8 | 112.7 | 88 | 70.2 | 56.83 | 46.73 | 39.02 | 32.96
x2 = 0.399 | 77.9 | 61.74 | 49.69 | 40.72 | 33.84 | 28.41 | 24.24 | – | –
x2 = 0.598 | 24.32 | – | 17.64 | 15.26 | 13.28 | 11.67 | 10.3 | 9.132 | 8.188
x2 = 0.799 | 5.308 | 4.769 | 4.309 | 3.911 | 3.566 | – | 2.998 | 2.763 | 2.555

CCCC[n+]1ccn(C)c1.COP(=O)([O-])OC + CO
viscosity [mPa·s]
Conditions | 293.15 K | 298.15 K | 303.15 K | 308.15 K | 313.15 K | 318.15 K | 323.15 K | 328.15 K | 333.15 K
x2 = 0.203 | 395 | 282 | 206 | 154.4 | 117.9 | 91.5 | 72.5 | 58.3 | 47.6
x2 = 0.404 | 150.1 | 113.3 | 87.5 | – | 54.86 | – | 36.49 | 30.37 | 25.51
x2 = 0.6 | 38.6 | 31.59 | 26.19 | 21.99 | 18.59 | 15.94 | 13.78 | 11.99 | 10.48
x2 = 0.8 | – | 6.267 | 5.536 | 4.923 | – | 3.972 | 3.665 | 3.338 | 3.051

CCCC[n+]1ccn(C)c1.COP(=O)([O-])OC + CCO
viscosity [mPa·s]
Conditions | 293.15 K | 298.15 K | 303.15 K | 308.15 K | 313.15 K | 318.15 K | 323.15 K | 328.15 K | 333.15 K
x2 = 0.201 | 396 | 284 | 210 | – | 119 | 92.7 | 73.3 | 59.06 | 48.16
x2 = 0.399 | – | – | 88.9 | 69.9 | – | – | – | – | –
x2 = 0.6 | 42.1 | 34.3 | 28.18 | 23.56 | 19.87 | 16.97 | 14.59 | 12.66 | 11.06
x2 = 0.8 | 8.84 | 7.704 | 6.718 | – | – | 4.711 | – | – | 3.454
